# Test results: paper PMC5844890 (Scientific Reports, 2018)
# Read-outs that look alike come from different tables or passages of the source.
# Assays:
# MDA-MB-231 cells = assay: Anti-proliferative activity, MDA-MB-231 breast carcinoma cells (Coulter counting); format: cell-based; details: Homo sapiens, MDA-MB-231, 72 h; mean ± SD of three independent experiments; 3 days of incubation; read-out: Tumor cells IC50 MDA-MB-231
# Text: (§1) The anti-proliferative activity of the synthesized benzofurane derivatives was studied in three human cancer cell lines [breast carcinoma (MDA-MB-231), lymphoblastic leukemia (CEM) and cervical carcinoma (HeLa) cells] and one endothelial cell line [human microvascular endothelial cells (HMEC-1)].
# (§2) The human microvascular endothelial cell line HMEC-1 was obtained at passage 12 from the Centers for Disease Control and Prevention (Atlanta, GA, USA) and used from passage 17 till 27. Human breast carcinoma (MDA-MB-231), human cervical carcinoma (HeLa) and human T-lymphoid (CEM) cells were obtained from ATCC (Middlesex, UK). Cell lines were maintained in culture for up to 3 months and grown in DMEM, supplemented with 10% FBS, 0.01 M Hepes and 1 mM sodium pyruvate. All cells were cultured in a humidified 5% CO2 incubator at 37 °C.
# (§3) HMEC-1 cells were seeded in 48-well plates at 20,000 cells/well. After 24 h, 5-fold dilutions of the compounds were added. The cells were allowed to proliferate 4 days in the presence of the compounds, trypsinized, and counted by means of a Coulter counter (Analis, Belgium). HeLa and MDA-MB-231 cells were seeded in 48-well plates at 10,000 cells/well. After 24 h, different concentrations of the compounds were added. After 3 days of incubation, the cells were trypsinized and counted in a Coulter counter. Suspension cells (human lymphoid Cem cells) were seeded in 96-well plates at 60,000 cells/well in the presence of different concentrations of the compounds, allowed to proliferate for 96 h, and counted in a Coulter counter. The 50% inhibitory concentration (IC50) was defined as the compound concentration required to reduce cell proliferation by 50%.
# CEM cells = assay: Anti-proliferative activity, CEM lymphoblastic leukemia cells (Coulter counting); format: cell-based; details: Homo sapiens, CCRF-CEM; mean ± SD of three independent experiments; 96 h; read-out: Tumor cells IC50 CEM
# Text: as §1, §2, §3
# HeLa cells = assay: Anti-proliferative activity, HeLa cervical carcinoma cells (Coulter counting); format: cell-based; details: Homo sapiens, 72 h, mean ± SD of three independent experiments, 3 days of incubation, read-out: Tumor cells IC50 HeLa
# Text: as §1, §2, §3
# A2780 cells = assay: Anti-proliferative activity, A2780 ovarian carcinoma cells; format: cell-based, human; details: Homo sapiens, A2780; mean ± standard error of three independent experiments
# Text: (§4) One of the most relevant causes of tumor resistance to chemotherapy is the overexpression of membrane pumps which remove the chemotherapeutic agents from the treated cells.
# A2780AD cells = assay: Anti-proliferative activity, A2780AD (MDR overexpressing P-glycoprotein) ovarian carcinoma cells; format: cell-based, human; details: Homo sapiens, A2780AD; P-glycoprotein overexpressing resistant line; mean ± standard error of three independent experiments; read-out: A2780 AD IC50
# Text: as §4
# HMEC-1 cells [1] = assay: Disruption of a preformed vascular network on matrigel (tube formation); format: cell-based, human
# Experimental: Figure 6 Mechanism of action of the benzofurane derivatives. (A) Inhibition of cell cycle progression. MDA-MB-231 cells were treated with DMSO (control) or compounds 8, 27 or 28 for 24 h. Next, the cells were harvested, stained with propidium iodide (PI), and cell cycle distribution was evaluated by flow cytometry. Percentages of cells in the different phases of the cell cycle are indicated. (B) Caspase-3 activity. MDA-MB-231 cells were seeded in 48-well plates at 40,000 cells/cm². After 24 h, different concentrations of compounds 8, 27 or 28 and 2 µM of the caspase-3 substrate DEVD-NucView488 were added. After 16 h, the cells were incubated with 2 µg/ml Hoechst 33342 to stain the nucleus, and imaged. (C) Disruption of the vascular network. HMEC-1 cells were cultured on matrigel for 3 h to allow the formation of tube-like structures. Next, different concentrations of compounds were added. Upper panel: After 90 min, pictures were taken and the tubular network was scored (3: intact network, 0: network completely destroyed). Bars show average ± SEM (n = 4). Lower panel: Microscopic pictures of the tubular network 3 h after addition of compound.
# Another feature of colchicine-site binding agents is their ability to destroy a 3-dimensional network of endothelial cells. To determine the vascular disrupting capacity of compounds 27 and 28, HMEC-1 cells were seeded on top of matrigel. This tumor derived extracellular matrix induces within 3 h the rearrangement of endothelial cells into a vascular network. Compounds 27 and 28 caused a disruption of the tubular network in a concentration-dependent manner (Fig. 6C).
# Wells of a 96-well plate were coated with 70 µl matrigel (10 mg/ml, BD Biosciences, Heidelberg, Germany) at 4 °C. After gelatinization at 37 °C during 30 min, HMEC-1 cells were seeded at 60,000 cells/well on top of the matrigel in 200 µl DMEM containing 10% FCS. After 3 h of incubation at 37 °C, when the endothelial cells had reorganized to form tube-like structures, the compounds were added. Ninety minutes later, the cultures were photographed at 100 × magnification and analyzed using digitalized analysis.
# HMEC-1 cells [2] = assay: IncuCyte scratch wound migration assay with PI uptake; format: cell-based; details: for uptake of PI (toxicity): at the lowest concentration inhibiting wound closure (0.5, 0.06 and 0.06 µM)
# Experimental: Proper tubulin organization is not only required for cell division but also for cell motility and migration. Therefore, we evaluated the capacity of the compounds to inhibit the migration of HMEC-1 endothelial cells. To this end, we used the 96-well IncuCyte® scratch wound assay. After the creation of a cell-free zone (wound) in a confluent cell monolayer, compounds were added, and relative wound density was measured every minute and visualized in time-course plots. PI was added to all wells to visualize toxicity over time, i.e. only dead cells take up this cell-impermeable dye.
# Figure 7 Inhibition of HMEC-1 migration. The 96-well IncuCyte® scratch wound assay was used to create a cell-free zone (wound) in a confluent cell monolayer. Next, compounds were added and the relative wound density was measured every minute and visualized in time-course plots (left panels). PI is added to all wells to visualize toxicity over time, i.e. only dead cells take up this cell-impermeable dye (right panels). Average ± SEM (n = 3) are shown.
# Wounds were created in confluent HMEC-1 cells by means of the “Incucyte® wound maker”. Next, different concentrations of compound and PI were added and images were taken every 2 min for the duration of the experiment. The algorithm masks each phase-contrast image to identify the position of the wounded (cell-free) and unwounded (cell-occupied) zones. Relative wound density is calculated and visualized in time-course plots.
# [3] = test system: MDA-MB-231, CEM, HeLa and HMEC-1 cells; assay: Anti-proliferative activity, summary over tumor and endothelial cell lines; format: cell-based; details: Homo sapiens
# Experimental: as §1, §3
# [4] = Endothelial cell, range stated in the conclusions, read-out: IC50 (antiproliferative activity against tumor and endothelial cells)
# [5] = range over tumor and endothelial cell lines, read-out: IC50 values ranging (antiproliferative, all cell lines of Table 1)
SMILES,IC50 (MDA-MB-231 cells) [nM],IC50 (CEM cells) [nM],IC50 (HeLa cells) [nM],IC50 (A2780 cells) [nM],IC50 (A2780AD cells) [nM],disruption of the vascular (tubular) network (HMEC-1 cells [1]; 0.01 μM),disruption of the vascular (tubular) network (HMEC-1 cells [1]; 0.1 μM),lowest concentration inhibiting wound closure (HMEC-1 cells [2]) [µM],uptake of PI (toxicity) (HMEC-1 cells [2]),"IC50 [3, 4] [nM]","IC50 [3, 5] [nM]"
"CC(Nc1cccc2cc(COCCCO)oc12)=C1C(=O)CC(c2ccccc2)CC1=O (stereo not shown) [Compound 28, 2-(1-((2-((3-Hydroxypropoxy)methyl)benzofuran-7-yl)amino)ethylidene)-5-phenylcyclohexane-1,3-dione]",12 ± 5,51 ± 18,34 ± 3,38 ± 7,76 ± 15,antivascular effect was still evident,nearly completely abrogated the vascular network,0.06,No increased uptake of PI,8 to 31,9 to 51
"COCc1cc2cccc(NC(C)=C3C(=O)CC(c4ccccc4)CC3=O)c2o1 (stereo not shown) [Compound 27, 2-(1-((2-(Methoxymethyl)benzofuran-7-yl)amino)ethylidene)-5-phenylcyclohexane-1,3-dione]",9 ± 1,31 ± 2,30 ± 2,23 ± 2,39 ± 15,antivascular effect was still evident,nearly completely abrogated the vascular network,0.06,No increased uptake of PI,8 to 31,9 to 51
